Laboratory results: paper PMC6135860 (Neuropsychopharmacology, 2018)

How the values were obtained:
ICR mice = assay: Antidepressant-like effect models (tail suspension, forced swim); assay type: in vivo, mouse; settings: Supplementary Figure S3
Excerpt: Data are presented as mean ± S.E.M. (n = 10 male mice); * p < 0.05 and ** p < 0.01 (Student’s t-test) versus vehicle-treated group.

[1] = target: T1, humanized mouse PDE4D7 dimer S129D(PKA), Y271F(UCR2) (Mus musculus, UniProt Q01063, S129D/Y271F); assay: biochemical; assay type: biochemical
T1 construct: hexahistidine; Proteos Inc; host or cells: Baculovirus-infected Sf9 insect cells
T1 sequence (Q01063 1-747 S129D/Y271F): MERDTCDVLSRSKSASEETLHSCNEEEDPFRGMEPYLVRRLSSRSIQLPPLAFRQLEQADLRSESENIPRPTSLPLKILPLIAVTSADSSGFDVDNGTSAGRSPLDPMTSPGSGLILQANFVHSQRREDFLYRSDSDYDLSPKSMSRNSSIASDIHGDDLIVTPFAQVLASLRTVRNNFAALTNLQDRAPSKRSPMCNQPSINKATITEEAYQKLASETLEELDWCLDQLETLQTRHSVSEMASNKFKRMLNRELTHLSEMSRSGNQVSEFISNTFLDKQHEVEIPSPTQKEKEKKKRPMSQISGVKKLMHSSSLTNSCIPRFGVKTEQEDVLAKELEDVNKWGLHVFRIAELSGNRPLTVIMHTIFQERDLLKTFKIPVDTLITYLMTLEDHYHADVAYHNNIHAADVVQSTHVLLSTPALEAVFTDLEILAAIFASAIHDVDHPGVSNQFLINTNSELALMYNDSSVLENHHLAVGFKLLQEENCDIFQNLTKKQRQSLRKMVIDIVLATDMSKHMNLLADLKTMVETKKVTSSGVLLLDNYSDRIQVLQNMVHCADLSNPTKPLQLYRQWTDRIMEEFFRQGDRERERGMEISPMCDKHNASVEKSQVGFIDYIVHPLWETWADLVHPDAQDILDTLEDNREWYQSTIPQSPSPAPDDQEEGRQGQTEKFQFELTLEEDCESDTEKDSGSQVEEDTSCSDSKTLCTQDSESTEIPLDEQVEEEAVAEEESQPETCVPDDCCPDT
Procedure: Kinetic assay of cAMP hydrolysis by purified PDE4 enzymes is measured by coupling the formation of the PDE4 reaction product 5′-adenosine monophosphate (AMP) to the oxidation of reduced nicotinamide adenine dinucleotide (NADH). This is accomplished with three coupling enzymes (yeast myokinase, pyruvate kinase, and lactate dehydrogenase), and allows fluorescent determination of reaction rates [19]. To measure inhibition of PDE4 enzymes by test compounds, data were percent normalized relative to controls and are presented as percent inhibition.
Kinetic assay of cAMP hydrolysis by purified PDE4 enzymes is measured by coupling the formation of the PDE4 reaction product 5′-adenosine monophosphate (AMP) to the oxidation of reduced nicotinamide adenine dinucleotide (NADH). This is accomplished with three coupling enzymes (yeast myokinase, pyruvate kinase, and lactate dehydrogenase), and allows fluorescent determination of reaction rates.^19 Assays were performed in 96-well plates in a total volume of 200 μl/well. Compounds were dissolved in dimethylsulfoxide (DMSO) and added to plates in a volume of 10 μl followed by addition of 165 μl of assay mix. Plates were pre-incubated at 25 °C for 10 min. The enzyme reaction was initiated by the addition of 25 μl of cAMP followed by thorough mixing. […] Initial rates (slopes) were determined from linear portions of the progress curves. […]

[2] = tested on: pCREB, BDNF, pSynapsin, PSD95 in humanized PDE4D mice; assay: Immunoblot of hippocampal plasticity-related proteins; assay type: in vivo, mouse
Procedure: Hippocampal tissues were treated with lysis buffer for protein extraction. Then, 10–30 μg protein was separated using gel electrophoresis and transferred to polyvinylidene difluoride membranes, blocked with blocking buffer, and incubated with primary antibodies overnight at 4 °C. Labeled protein bands were detected using the enhanced chemiluminescence method and quantified using Quantity One 1-D Analysis Software.
Hippocampal tissues were lysed with RIPA buffer containing protease and phosphatase inhibitors and centrifuged at 13,000 rpm for 30 min at 4 °C. Aliquots of supernatant containing 10-30 μg protein were separated using 10% SDS-PAGE as described previously^66. Proteins from the gels were transferred to polyvinylidene difluoride membranes, blocked with blocking buffer (phosphate buffered saline containing 3% BSA and 0.1% sodium azide), and incubated with primary antibodies overnight at 4°C (phospho-CREB at Ser 133 (# ab32096, diluted 1:1000, abcam, Cambridge, MA), CREB (# sc-186, diluted 1:200, Santa Cruz Biotechnology, Dallas, Texas), β -actin (Catalog # ab8227, diluted 1:2000, abcam, Cambridge, MA)), Synapsin (#2312, diluted 1:1000, Cell Signaling Technology), Phospho-synapsin (#2311, diluted […], Cell Signaling Technology ), and PSD-95 (#2507, diluted 1:1000, Cell Signaling Technology, Danvers, MA). Labeled protein bands were detected using the enhanced chemiluminescence (ECL) method and quantified using Quantity One 1-D Analysis Software.

[3] = repeated oral dosing 14 days, hPDE4D mice

Q: Which results are given for O=C(O)Cc1ccc(Cc2cc(-c3cccc(Cl)c3)nc(C(F)(F)F)c2)cc1 [BPN14770]?
A: antidepressant-like effect (ICR mice): ineffective; projected tolerability in non-rodent species, plasma (humanized PDE4D mice; from surrogate measure of emesis): greater than 1300 ng/ml; window in exposure between beneficial doses and plasma exposure predicted to cause emesis (humanized PDE4D mice; humanized PDE4D mice): 40- to 100 fold; NOAEL (no observed adverse effect level), ketamine/xylazine test (humanized PDE4D mice; mouse, in vivo): 1 mg/kg PO; increase in potency by mutation of mouse UCR2 tyrosine 271 to phenylalanine ([1]; Y271F versus wild-type mouse PDE4D7): 46 fold; IC50 ([1]; mouse PDE4D7 dimer, S129D, Y271F (humanized UCR2)): 2.9 ± 0.3 nM; hippocampal CREB phosphorylation or BDNF expression after single acute dose ([2]; 1 h after dosing, data not shown): no change; synapsin phosphorylation in prefrontal cortex and cortex ([2]; hPDE4D mice, repeated dosing, data not shown): increased phosphorylation of synapsin was also observed; increase in hippocampal PSD95 ([2]; repeated dosing, 0.03 mg/kg): 1.4 fold; increase in hippocampal phosphorylation of synapsin ([2]; repeated dosing, 0.03 mg/kg): 1.5 fold; elevation of hippocampal BDNF [2, 3]: 2.1 fold; elevation of hippocampal CREB phosphorylation [2, 3]: 2.3 fold
